From publication PMC2362650, “Phase I and pharmacokinetic study of the topoisomerase II catalytic inhibitor fostriecin” (British Journal of Cancer, 1999)

Tests used:
[1] = system: GLC4/VM20x; set-up: method as in Withoff et al, 1996; settings: ref Withoff et al, 1996; cited from earlier work
[2] = Plasma and urine pharmacokinetics (HPLC-UV) in patients after 60-min IV infusion; format: in vivo, human; settings: patients who received 12.2 mg m-2 (and above) fostriecin
Excerpt: Fostriecin (CI-920) is a topoisomerase (topo) II catalytic activity inhibitor (Boritzki et al, 1988) (Figure 1). This novel class of topo II-targeting drugs is considered of potential value for treatment of patients with tumours resistant to classic topo II poisons, including anthracyclines and podophyllotoxins (Cummings and Smyth, 1993). The nuclear enzyme topo II is essential for the regulation of DNA conformation (reviewed in Osheroff et al, 1991). Central in its action is the formation of a complex with DNA. Stabilization of this complex by topo II poisons induces DNA damage and cell death (Froelich-Ammon and Osheroff, 1995). Decreased complex formation due to decreased topo II levels is considered to be an important mechanism of tumour-resistance to topo II poisons (Beck and Danks, 1991). The topo II catalytic inhibitor fostriecin is expected to have increased activity against tumour cells with low topo II levels and this was confirmed in in vitro studies (De Jong et al, 1991). […] Because of increased toxi- city of fostriecin in dogs compared to mice, a dose below one-third of the one-tenth mouse equivalent LD10, 2 mg m-2 day-1, was chosen as starting dose in humans (Clinical Brochure Fostriecin, 1991). […] We also performed an analysis of the human pharmacokinetics of fostriecin and ex vivo experiments to investigate if the plasma drug concentrations achieved were sufficient to inhibit a tenipo- side-resistant tumour cell line. The maximum tolerated dose (MTD) of fostriecin could not be established because drug supply was stopped prematurely. However, results of this study may provide a basis for continued clinical development of this agent. PATIENTS AND METHODS Patient selection, drug administration and evaluation Patient eligibility criteria were: histologically confirmed diagnosis of a solid tumour, no longer amenable to established forms of treatment; age 18-75 years; Eastern Cooperative Oncology Group (ECOG) performance status 2; life expectancy 12 weeks; no Phase I and pharmacokinetic study of the topoisomerase II catalytic inhibitor fostriecin RS de Jong1, NH Mulder1, DRA Uges2, DTh Sleijfer1, FJP Hoppener4, HJM Groen3, PHB Willemse1, WTA van der Graaf1 and EGE de Vries1 Departments of 1Medical Oncology, 2Pharmacy and Toxicology, and 3Pulmonary Diseases, University Hospital Groningen, The Netherlands; 4EORTC New Drug Development Office, Amsterdam, The Netherlands Summary We conducted a phase I and pharmacokinetic study of the topoisomerase II catalytic inhibitor fostriecin. Fostriecin was administered intravenously over 60 min on days 1-5 at 4-week intervals. Dose was escalated from 2 mg m-2 day-1 to 20 mg m-2 day-1 in 20 patients. Drug pharmacokinetics was analysed with high performance liquid chromatography with UV-detection. Plasma collected during drug administration was tested in vitro for growth inhibition of a teniposide-resistant small-cell lung cancer (SCLC) cell line. The predominant toxicities were elevated liver transaminases (maximum common toxicity criteria (CTC) grade 4) and serum creatinine (maximum CTC grade 2). […] Duration of elevated alanine-amino transferase (ALT) was dose-limiting in one patient at 20 mg m-2. Other frequent toxicities were grade 1-2 nausea/vomiting, fever and mild fatigue. […] A metabolite, most probably dephosphorylated fostriecin, was detected in plasma and urine. […] However, further escalation seems possible and is warranted to achieve potentially effective drug levels. Fostriecin has a short plasma half-life and longer duration of infusion should be considered. […]

Structure (SMILES)	acquired resistance of GLC4/VM20x compared to GLC4 [1]	metabolite in plasma and urine [2]
COc1cc([C@@H]2c3cc4c(cc3[C@@H](O[C@@H]3O[C@@H]5CO[C@@H](c6cccs6)O[C@H]5[C@H](O)[C@H]3O)[C@H]3COC(=O)[C@H]23)OCO4)cc(OC)c1O [teniposide, reference compound]	20 fold	
C[C@@](O)(/C=C/[C@H]1CC=CC(=O)O1)[C@H](O)C[C@@H](O)\C=C/C=C\C=C\CO [dephosphorylated fostriecin]		detected
